Assay results reported in patent US6632808B1 (priority 1998, dated 2003).

System: hamster 263K scrapie
Set-up: species or system transgenic mice over-expressing the hamster PrP-sen (Tg7)
Details: in vivo

Substance: Phthalocyanine tetrasulfonate [PcTS]
- animals surviving a minimum of 200 days: 60%
- increase of survival times, late treatment: one week
- survival longer than untreated controls: approximately 120 days
- survivors at >170 Dpi: 80%
